Results as given in the NIST ThermoML archive (doi:10.1016/j.jct.2018.01.015).
Numbers after ± are expanded uncertainties.

Experiment: xn = mol fraction of the nth substance listed
Conditions: Gas, rotating-body viscometer for gases

N#N [nitrogen] + O=C=O
viscosity (323.22 K, 200.9 kPa, x1 = 0.4996): 0.0177 ± 4.2e-05 mPa·s
viscosity (323.22 K, 398.6 kPa, x1 = 0.4996): 0.01773 ± 4.2e-05 mPa·s
viscosity (323.22 K, 399.4 kPa, x1 = 0.2479): 0.01695 ± 5.5e-05 mPa·s
viscosity (323.22 K, 598 kPa, x1 = 0.4996): 0.01776 ± 4.2e-05 mPa·s
viscosity (323.22 K, 605 kPa, x1 = 0.2479): 0.01698 ± 5.5e-05 mPa·s
viscosity (323.22 K, 798.9 kPa, x1 = 0.2479): 0.01701 ± 5.5e-05 mPa·s
viscosity (323.22 K, 804.9 kPa, x1 = 0.4996): 0.0178 ± 4.2e-05 mPa·s
viscosity (323.22 K, 996.4 kPa, x1 = 0.4996): 0.01783 ± 4.2e-05 mPa·s
viscosity (323.22 K, 1001.8 kPa, x1 = 0.2479): 0.01705 ± 5.5e-05 mPa·s
viscosity (323.22 K, 1196.8 kPa, x1 = 0.2479): 0.0171 ± 5.5e-05 mPa·s
viscosity (323.22 K, 1198.6 kPa, x1 = 0.4996): 0.01787 ± 4.2e-05 mPa·s
viscosity (323.26 K, 100.6 kPa, x1 = 1): 0.0189 ± 3.1e-05 mPa·s
viscosity (323.26 K, 101.5 kPa, x1 = 1): 0.0189 ± 3.1e-05 mPa·s
viscosity (323.26 K, 200.7 kPa, x1 = 1): 0.0189 ± 3.1e-05 mPa·s
viscosity (323.26 K, 400.4 kPa, x1 = 1): 0.01893 ± 3.1e-05 mPa·s
viscosity (323.26 K, 600.8 kPa, x1 = 1): 0.01896 ± 3.1e-05 mPa·s
viscosity (323.26 K, 800.2 kPa, x1 = 1): 0.01896 ± 3.1e-05 mPa·s
viscosity (323.26 K, 1000.6 kPa, x1 = 1): 0.01901 ± 3.1e-05 mPa·s
viscosity (323.26 K, 1000.9 kPa, x1 = 1): 0.01901 ± 3.1e-05 mPa·s
viscosity (323.27 K, 398.8 kPa, x1 = 1): 0.01893 ± 3.1e-05 mPa·s
viscosity (323.27 K, 1501.9 kPa, x1 = 1): 0.01907 ± 3.1e-05 mPa·s
viscosity (323.27 K, 1802.1 kPa, x1 = 1): 0.01913 ± 3.1e-05 mPa·s
viscosity (373.25 K, 103.3 kPa, x1 = 0.2479): 0.01923 ± 5.5e-05 mPa·s
viscosity (373.25 K, 107.8 kPa, x1 = 0.4996): 0.01998 ± 4e-05 mPa·s
viscosity (373.25 K, 200.1 kPa, x1 = 0.2479): 0.01925 ± 5.5e-05 mPa·s
viscosity (373.25 K, 200.7 kPa, x1 = 0.4996): 0.02 ± 4e-05 mPa·s
viscosity (373.25 K, 391.3 kPa, x1 = 0.4996): 0.02002 ± 4e-05 mPa·s
viscosity (373.25 K, 400.6 kPa, x1 = 0.2479): 0.01928 ± 5.5e-05 mPa·s
viscosity (373.25 K, 598.5 kPa, x1 = 0.4996): 0.02005 ± 4e-05 mPa·s
viscosity (373.25 K, 601.5 kPa, x1 = 0.2479): 0.0193 ± 5.5e-05 mPa·s
viscosity (373.25 K, 799.5 kPa, x1 = 0.4996): 0.02008 ± 4e-05 mPa·s
viscosity (373.25 K, 802.2 kPa, x1 = 0.2479): 0.01933 ± 5.5e-05 mPa·s
viscosity (373.25 K, 998.6 kPa, x1 = 0.4996): 0.02011 ± 4e-05 mPa·s
viscosity (373.25 K, 999.6 kPa, x1 = 0.2479): 0.01937 ± 5.5e-05 mPa·s
viscosity (373.25 K, 1498 kPa, x1 = 0.4996): 0.0202 ± 4e-05 mPa·s
viscosity (373.25 K, 1498.2 kPa, x1 = 0.2479): 0.01947 ± 5.5e-05 mPa·s
viscosity (373.29 K, 100.8 kPa, x1 = 1): 0.02102 ± 3.1e-05 mPa·s
viscosity (373.29 K, 201.1 kPa, x1 = 1): 0.02104 ± 3.1e-05 mPa·s
viscosity (373.29 K, 401 kPa, x1 = 1): 0.02106 ± 3.1e-05 mPa·s
viscosity (373.29 K, 601 kPa, x1 = 1): 0.02107 ± 3.1e-05 mPa·s
viscosity (373.29 K, 1000.3 kPa, x1 = 1): 0.02111 ± 3.1e-05 mPa·s
viscosity (373.29 K, 1500.6 kPa, x1 = 1): 0.02118 ± 3.1e-05 mPa·s
viscosity (373.29 K, 1807.2 kPa, x1 = 1): 0.02122 ± 3.1e-05 mPa·s
viscosity (373.57 K, 108.8 kPa, x1 = 0.7498): 0.02061 ± 5.3e-05 mPa·s
viscosity (373.57 K, 199.2 kPa, x1 = 0.7498): 0.02064 ± 5.3e-05 mPa·s
viscosity (373.57 K, 399.3 kPa, x1 = 0.7498): 0.02065 ± 5.3e-05 mPa·s
viscosity (373.57 K, 598.2 kPa, x1 = 0.7498): 0.02068 ± 5.3e-05 mPa·s
viscosity (373.57 K, 1002.4 kPa, x1 = 0.7498): 0.02073 ± 5.3e-05 mPa·s
viscosity (373.57 K, 1501.2 kPa, x1 = 0.7498): 0.02081 ± 5.3e-05 mPa·s
viscosity (373.57 K, 2041.9 kPa, x1 = 0.7498): 0.02091 ± 5.3e-05 mPa·s
viscosity (423.27 K, 108.9 kPa, x1 = 0.7498): 0.02271 ± 5.9e-05 mPa·s
viscosity (423.27 K, 200.4 kPa, x1 = 0.7498): 0.02272 ± 5.9e-05 mPa·s
viscosity (423.27 K, 398.7 kPa, x1 = 0.7498): 0.02274 ± 5.9e-05 mPa·s
viscosity (423.27 K, 600.7 kPa, x1 = 0.7498): 0.02275 ± 5.9e-05 mPa·s
viscosity (423.27 K, 1000.3 kPa, x1 = 0.7498): 0.02281 ± 5.9e-05 mPa·s
viscosity (423.27 K, 1500.1 kPa, x1 = 0.7498): 0.02287 ± 5.9e-05 mPa·s
viscosity (423.27 K, 2000 kPa, x1 = 0.7498): 0.02293 ± 5.9e-05 mPa·s
viscosity (423.28 K, 107.7 kPa, x1 = 0.2479): 0.02144 ± 6.2e-05 mPa·s
viscosity (423.28 K, 109.4 kPa, x1 = 0.4996): 0.02216 ± 4.5e-05 mPa·s
viscosity (423.28 K, 199.9 kPa, x1 = 0.4996): 0.02216 ± 4.5e-05 mPa·s
viscosity (423.28 K, 400 kPa, x1 = 0.4996): 0.02219 ± 4.5e-05 mPa·s
viscosity (423.28 K, 603 kPa, x1 = 0.4996): 0.02221 ± 4.5e-05 mPa·s
viscosity (423.28 K, 1001.7 kPa, x1 = 0.4996): 0.02226 ± 4.5e-05 mPa·s
viscosity (423.28 K, 1496.5 kPa, x1 = 0.4996): 0.02233 ± 4.5e-05 mPa·s
viscosity (423.28 K, 1995 kPa, x1 = 0.4996): 0.02242 ± 4.5e-05 mPa·s
viscosity (423.29 K, 201.4 kPa, x1 = 0.2479): 0.02145 ± 6.2e-05 mPa·s
viscosity (423.29 K, 405.1 kPa, x1 = 0.2479): 0.02148 ± 6.2e-05 mPa·s
viscosity (423.29 K, 601.1 kPa, x1 = 0.2479): 0.02151 ± 6.2e-05 mPa·s
viscosity (423.29 K, 1000.7 kPa, x1 = 0.2479): 0.02156 ± 6.2e-05 mPa·s
viscosity (423.29 K, 1495.1 kPa, x1 = 0.2479): 0.02165 ± 6.2e-05 mPa·s
viscosity (423.29 K, 1998.5 kPa, x1 = 0.2479): 0.02175 ± 6.2e-05 mPa·s
viscosity (423.33 K, 100.9 kPa, x1 = 1): 0.02302 ± 3.4e-05 mPa·s
viscosity (423.33 K, 200.9 kPa, x1 = 1): 0.02303 ± 3.4e-05 mPa·s
viscosity (423.33 K, 400.7 kPa, x1 = 1): 0.02306 ± 3.4e-05 mPa·s
viscosity (423.33 K, 600.6 kPa, x1 = 1): 0.02308 ± 3.4e-05 mPa·s
viscosity (423.33 K, 1000.5 kPa, x1 = 1): 0.02311 ± 3.4e-05 mPa·s
viscosity (423.33 K, 1500.2 kPa, x1 = 1): 0.02316 ± 3.4e-05 mPa·s
viscosity (423.33 K, 1799.4 kPa, x1 = 1): 0.02319 ± 3.4e-05 mPa·s
viscosity (473.31 K, 108.7 kPa, x1 = 0.7498): 0.0247 ± 6.3e-05 mPa·s
viscosity (473.31 K, 199 kPa, x1 = 0.7498): 0.02471 ± 6.3e-05 mPa·s
viscosity (473.31 K, 399 kPa, x1 = 0.7498): 0.02472 ± 6.3e-05 mPa·s
viscosity (473.31 K, 602.8 kPa, x1 = 0.7498): 0.02474 ± 6.3e-05 mPa·s
viscosity (473.31 K, 1003.8 kPa, x1 = 0.7498): 0.02477 ± 6.3e-05 mPa·s
viscosity (473.31 K, 1501.4 kPa, x1 = 0.7498): 0.02482 ± 6.3e-05 mPa·s
viscosity (473.31 K, 1996.7 kPa, x1 = 0.7498): 0.02489 ± 6.3e-05 mPa·s
viscosity (473.32 K, 108.1 kPa, x1 = 0.4996): 0.02422 ± 4.8e-05 mPa·s
viscosity (473.32 K, 203.7 kPa, x1 = 0.4996): 0.02423 ± 4.8e-05 mPa·s
viscosity (473.32 K, 400.1 kPa, x1 = 0.4996): 0.02424 ± 4.8e-05 mPa·s
viscosity (473.32 K, 602.4 kPa, x1 = 0.4996): 0.02427 ± 4.8e-05 mPa·s
viscosity (473.32 K, 1006.2 kPa, x1 = 0.4996): 0.02431 ± 4.8e-05 mPa·s
viscosity (473.32 K, 1503 kPa, x1 = 0.4996): 0.02437 ± 4.8e-05 mPa·s
viscosity (473.32 K, 1991.9 kPa, x1 = 0.4996): 0.02444 ± 4.8e-05 mPa·s
viscosity (473.34 K, 109.3 kPa, x1 = 0.2479): 0.02355 ± 6.6e-05 mPa·s
viscosity (473.34 K, 203.1 kPa, x1 = 0.2479): 0.02356 ± 6.6e-05 mPa·s
viscosity (473.34 K, 395.8 kPa, x1 = 0.2479): 0.02358 ± 6.6e-05 mPa·s
viscosity (473.34 K, 597.3 kPa, x1 = 0.2479): 0.02359 ± 6.6e-05 mPa·s
viscosity (473.34 K, 1000.4 kPa, x1 = 0.2479): 0.02365 ± 6.6e-05 mPa·s
viscosity (473.34 K, 1495.4 kPa, x1 = 0.2479): 0.02373 ± 6.6e-05 mPa·s
viscosity (473.34 K, 1998.5 kPa, x1 = 0.2479): 0.02382 ± 6.6e-05 mPa·s
viscosity (473.38 K, 100.7 kPa, x1 = 1): 0.02494 ± 3.6e-05 mPa·s
viscosity (473.38 K, 200.8 kPa, x1 = 1): 0.02495 ± 3.6e-05 mPa·s
viscosity (473.38 K, 398.5 kPa, x1 = 1): 0.02496 ± 3.6e-05 mPa·s
viscosity (473.38 K, 600.9 kPa, x1 = 1): 0.02497 ± 3.6e-05 mPa·s
viscosity (473.38 K, 1000.7 kPa, x1 = 1): 0.02499 ± 3.6e-05 mPa·s
viscosity (473.38 K, 1500.6 kPa, x1 = 1): 0.02503 ± 3.6e-05 mPa·s
viscosity (473.38 K, 1799.3 kPa, x1 = 1): 0.02505 ± 3.6e-05 mPa·s
